According to patent US12122821B2, “Regulation of glucose metabolism using anti-CGRP antibodies” (H. LUNDBECK A/S, priority 2013, dated 2024):
“Also recorded” adds a separate entry of the source.

Tests used:
[1] = test system: Zucker diabetic fatty (ZDF) rat; experiment: Oral glucose tolerance test on day 26 in ZDF rats (Example 3); type: in vivo
Protocol: The oral glucose tolerance test (OGTT) was performed as follows. On day 25, rats were fasted at ˜6:00 pm and an oral glucose tolerance test was performed the day after (on day 26). At ˜8:00 am (T-60) a blood collection (110 μL, EDTA) was performed for biochemical parameters measurements. One hour after (˜09:00 am), an oral glucose bolus (1.5 g/kg) was administered (T0). Blood glucose was measured (glucometer or colorimetric method in case of high glycaemia) on T-60, T0, T15, T30, T60, T90, T120, and T180 minutes. Area under the curve (AUC) was calculated based on the blood glucose values measured at T0. Plasma insulin and C-peptide were measured (ELISA method) on T-60, T15 (·40 μL of blood, EDTA), and T30 minutes (·40 μL of blood, EDTA).

[2] = test system: Zucker diabetic fatty (ZDF) rat; experiment: Plasma triglycerides, free fatty acids and cholesterol in ZDF rats (Example 3); type: in vivo; settings: for increase of free fatty acids levels: vs vehicle ZDF, not significant
Protocol: (§1) For the groups treated with AB14, the antibody was administered once weekly via the caudal vein (i.v., 5 mL/kg) on days 1, 8, 15, and 22 at two different doses 20 mg/kg/week (groups 3 and 7) or 60 mg/kg/week (groups 4 and 8). All other groups were treated once weekly with vehicle 1 (i.v., 5 mL/kg). The intravenous treatments were performed in the morning on day 1, 8, 15, and 22 while under isoflurane anaesthesia. The volume of administration was individually adapted according to the most recent body weight.
(§2) All other groups were treated daily with vehicle 2 (p.o., 5 mL/kg) for 28 days. The most recent body weight was used to calculate the average volume of administration in each group.
(§3) A fasting (6 hours on day 0 from 8:00 am to 02:00 pm, and overnight on day 12, 19 and 26 from ˜6:00 pm to ˜8:00 am) was performed before each blood collection. Blood was collected at ˜2:00 pm, from the tip of the tail, on day 0 (before screening, 150 μL, potassium EDTA), and at ˜8:00 am prior to dosing on days 12 (110 μL, potassium EDTA), 19 (150 μL, potassium EDTA) and 26, (110 μL, potassium EDTA).
(§4) Fasting blood glucose (glucometers) was measured on days 0, 12, 19, and 26. Fasting plasma insulin, peptide-C (ELISA method), free fatty acids, triglycerides, total cholesterol (colorimetric method), and HDL-cholesterol (phosphotungstate precipitation, colorimetric method) were measured on day 0, and prior to dosing on days 12, 19, and day 26. Non HDL-cholesterol was calculated as total cholesterol—HDL-cholesterol. Fructosamine was measured on days 0, 19 and 28. HbA1c (DCA 2000) was measured on days 0 and 28.

[3] = test system: Zucker diabetic fatty (ZDF) rat; experiment: Fructosamine and HbA1c in ZDF rats (Example 3); type: in vivo; settings: metformin 200 mg/kg/day, vs vehicle ZDF
Protocol: as §1, §2, §4

[4] = test system: Zucker diabetic fatty (ZDF) rat; experiment: Fasting blood glucose, plasma insulin, C-peptide and HOMA-IR in ZDF rats (Example 3); type: in vivo; settings: for increase of plasma C-peptide levels / increase of plasma insulin levels: vs vehicle ZDF; for increase of plasma C-peptide levels: NS; for increase of plasma insulin levels: ns
Protocol: as §1, §2, §3, §4

Normal rats = experiment: Blood glucose, plasma insulin and HOMA-IR before clamp in normal rats (Example 1); type: in vivo, rat; settings: vs vehicle
Protocol: The antibody used in this example consisted of the light and heavy polypeptide chains of SEQ ID NOs 132 and 134.
Blood glucose (BG) was measured between 07:30 and 08:00 (just before the light off) am from the tip of the tail with glucometer and a blood collection (on EDTA) was performed just after to measure plasma insulin. The table below describes the conditions:
Plasma samples were kept at −80° C. until insulin measurement (using ELISA method).
Vehicle and Ab14 were administered by i.v. route 48 h before the T0 of clamp procedure (at 02:00 pm two days before the clamp).
The rats were fasted 6 hours before the start of the clamp (at ˜8 h, just after the blood collection).

HFD rats = experiment: Fasting blood glucose, plasma insulin, C-peptide and HOMA-IR in HFD rats (Example 2); type: in vivo, rat; settings: vs HFD vehicle
Protocol: After 6 weeks of HFD rats were randomized to treatment groups according to their glucose intolerance (AUC calculation during an oral glucose tolerance test (OGTT)) and their HOMA-IR (insulin resistance index).
Body weight and food consumption were measured 3 times per week until 10 days of treatment. HOMA-IR was measured on day 10 and 15. A 2-step clamp (5 mU/kg/min and then 15 mU/kg/min insulin) was performed on day 15 or 16. Glucose Turnover (GTO) was assessed using ^3H-glucose tracer infusion during the clamp procedure.
Ab14 (10, 30, 100 mg/kg) and the vehicle were weekly administered via i.v. route (via the caudal vein, under isoflurane anaesthesia), in the morning, on day 1 and day 8 of treatment.
Before the start of the treatment (the day of OGTT) and on day 10 of treatment, all rats were fasted from 08:00 am. At 01:30 pm, blood was collected from the from the tip tail (40 μL on EDTA). Blood glucose (using glucometers) and plasma insulin (ELISA method) were measured.
Plasma insulin and C peptide levels were measured just before the infusion starts (˜T-30 min.), at the end of the steady state of step 1 (T2 h) and step 2 (T3.5 h). For that, blood collection was performed from the tip of the tail (˜100 μL, on EDTA).

[5] = day 12, metformin 200 mg/kg/day
[6] = day 19, metformin 200 mg/kg/day
[7] = day 26, metformin 200 mg/kg/day
[8] = day 10, Ab14 10, 30, 100 mg/kg/week, metformin 200 mg/kg/day

SMILES: CN(C)C(=N)N=C(N)N [metformin, reference compound]
- plasma insulin and C-peptide levels 15 and 30 minutes after the glucose load ([1]; day 26, metformin 200 mg/kg/day, pioglitazone 10 mg/kg/day, vs vehicle): slightly increased
- reduction in blood glucose AUC (OGTT) ([1]; day 26, pioglitazone 10 mg/kg/day, metformin 200 mg/kg/day, vs vehicle ZDF): 6%
- increase of plasma triglycerides levels ([2]; day 12, metformin 200 mg/kg/day, vs vehicle): 26%
- increase of free fatty acids levels [2, 5]: 14%
- increase of plasma triglycerides levels ([2]; day 19, metformin 200 mg/kg/day, vs vehicle): 40%
- increase of free fatty acids levels [2, 6]: 25%
- increase of plasma triglycerides levels ([2]; day 26, metformin 200 mg/kg/day, vs vehicle): 49%
- increase of free fatty acids levels [2, 7]: 8%
- non HDL-cholesterol levels ([2]; metformin 200 mg/kg/day alone or in combination with AB14, vs vehicle): no effect
- plasma HDL-cholesterol ([2]; metformin 200 mg/kg/day alone, vs vehicle): no effect
- decrease of HbA1c ([3]; 28 days, pioglitazone 10 mg/kg/day): 15%
- reduction of fructosamine levels ([3]; day 19, pioglitazone 10 mg/kg/day): 6%
- increase of plasma C-peptide levels [4, 5]: 23%
- increase of plasma insulin levels [4, 5]: 79%
- increase of plasma C-peptide levels [4, 6]: 21%
- increase of plasma insulin levels [4, 6]: 55%
- fasting blood glucose, effect ([4]; day 19 and 26, metformin 200 mg/kg): not observed
- increase of plasma C-peptide levels [4, 7]: 9%
- increase of plasma insulin levels [4, 7]: 48%
- HOMA-IR ([4]; days 12, 19 and 26, metformin 200 mg/kg/day alone or in combination with AB14, vs vehicle ZDF): increase of HOMA-IR
- blood glucose in fed conditions (Normal rats; fed, 42 h after Ab14 100 mg/kg i.v., 18 h after metformin 500 mg/kg p.o.): did not affect; also recorded: not affected
- decrease of plasma insulin level in fed condition (Normal rats; fed, 42 h after Ab14 100 mg/kg i.v., 18 h after metformin 500 mg/kg p.o., not significant): 18%
- decrease of blood glucose in 6 hours fasting condition, just before clamp (Normal rats; metformin 500 mg/kg p.o.): 17%
- decrease of HOMA-IR (HFD rats; [8]): 36%
- decrease of fasting plasma insulin (HFD rats; [8]): 37%
- fasting blood glucose (HFD rats; [8]): no effect
- decrease of plasma C-peptide level (HFD rats; day 15, metformin 200 mg/kg/day): 13%
- decrease of fasting plasma insulin (HFD rats; day 15, metformin 200 mg/kg/day, ns): 11%
